Source: patent US5998654A, “Retinoic acid receptor antagonist compounds and methods” (Ligand Pharmaceuticals Incorporated, priority 1997, dated 1999)

Tests used:
[1] = target: T1, RARβ (Homo sapiens, UniProt P10826); assay: RAR binding, RARβ; settings: Kd from IC50 by Cheng-Prussof equation
T1 sequence (P10826 1-448 isoform P10826-2): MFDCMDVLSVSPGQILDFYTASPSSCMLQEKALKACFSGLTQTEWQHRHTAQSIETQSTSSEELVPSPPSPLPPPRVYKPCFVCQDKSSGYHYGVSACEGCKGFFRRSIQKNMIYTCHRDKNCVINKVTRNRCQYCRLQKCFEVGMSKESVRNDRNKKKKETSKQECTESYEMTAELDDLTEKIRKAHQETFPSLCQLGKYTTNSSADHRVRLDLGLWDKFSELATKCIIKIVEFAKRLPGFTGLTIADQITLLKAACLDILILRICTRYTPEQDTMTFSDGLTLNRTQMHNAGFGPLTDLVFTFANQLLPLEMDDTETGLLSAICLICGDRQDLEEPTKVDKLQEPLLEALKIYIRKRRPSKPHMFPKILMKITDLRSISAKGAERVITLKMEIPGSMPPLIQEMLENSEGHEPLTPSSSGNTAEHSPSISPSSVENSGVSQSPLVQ
Protocol: (§1) Non-specific binding was defined as that binding remaining in the presence of 500 nM of the appropriate unlabelled compound. At the end of the incubation period, bound from free ligand were separated. The amount of bound tritiated retinoids was determined by liquid scintillation counting of an aliquot (700 μL) of the supernatant fluid or the hydroxylapatite pellet.
(§2) After correcting for non-specific binding, IC50 values were determined. […] The IC50 value was determined graphically from a log-logit plot of the data. The Kd values were determined by application of the Cheng-Prussof equation to the IC50 values, the labeled ligand concentration and the Kd of the labeled ligand.

[2] = target: T2, RARα (Homo sapiens, UniProt P10276); assay: RAR binding, RARα; settings: Kd from IC50 by Cheng-Prussof equation
T2 sequence (P10276 1-462): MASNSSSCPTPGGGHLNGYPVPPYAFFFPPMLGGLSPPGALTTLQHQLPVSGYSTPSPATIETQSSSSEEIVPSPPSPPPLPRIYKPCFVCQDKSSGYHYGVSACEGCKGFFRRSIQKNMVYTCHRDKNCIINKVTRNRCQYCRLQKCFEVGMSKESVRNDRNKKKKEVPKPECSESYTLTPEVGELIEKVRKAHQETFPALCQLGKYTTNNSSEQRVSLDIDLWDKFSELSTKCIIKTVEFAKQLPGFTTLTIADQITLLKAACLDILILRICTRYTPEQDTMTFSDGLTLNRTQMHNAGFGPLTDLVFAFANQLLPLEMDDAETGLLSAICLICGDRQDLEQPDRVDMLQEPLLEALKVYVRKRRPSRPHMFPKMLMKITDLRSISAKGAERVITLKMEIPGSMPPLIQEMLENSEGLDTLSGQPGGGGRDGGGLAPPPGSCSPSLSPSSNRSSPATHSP
Protocol: as §1, §2

Structure (SMILES) | Kd [1] | Kd [2]
CCCCOc1c(C(C)(C)C)cc(/C(C)=C/C=C/C(C)=C/C(=O)O)cc1C(C)(C)C [Compound 7, 2E, 4E, 6E-[7-(3,5-Di-t-butyl-4-n-butoxyphenyl)-3-methyl]-octa-2,4,6-trienoic acid] | 5 nM | 3 nM
CCCOc1c(C(C)(C)C)cc(/C(C)=C/C=C/C(C)=C/C(=O)O)cc1C(C)(C)C [Compound 8, 2E, 4E, 6E-[7-(3,5-Di-t-butyl-4-n-propoxyphenyl)-3-methyl]-octa-2,4,6-trienoic acid] | 1 nM | 2 nM
CCCCCOc1c(C(C)(C)C)cc(/C(C)=C/C=C/C(C)=C/C(=O)O)cc1C(C)(C)C [Compound 9, 2E, 4E, 6E-[7-(3,5-Di-t-butyl-4-n-pentoxyphenyl)-3-methyl]-octa-2,4,6-trienoic acid] | 5 nM | 9 nM
C=C(c1ccccc1)c1cc(/C(C)=C/C=C/C(C)=C/C(=O)O)cc(C(C)(C)C)c1 [Compound 17, (2E,4E,6E)-7-[3-t-butyl-5-(1-phenyl-vinyl)-phenyl]-3-methyl-octa-2,4,6-trienoic acid] | 3 nM | 2 nM
